{"source": "patent EP2766407B1", "about": "“PENTABLOCK POLYMERS” (The Curators Of The University Of Missouri, priority 2011, dated 2013)", "assay_type_in_all_cases": "cell-based", "key": {"[1]": {"test_system": "ARPE-19 (human retinal pigment epithelial cell line)", "experiment": "MTS assay (cytotoxicity), Pentablock Polymer B protocol", "conditions": "ARPE 19, Triton X control; blank = 100", "protocol": "(§1) The cytotoxicity and biocompatibility of the Pentablock Polymer A and Pentablock Polymer B were investigated in several cell lines. ARPE-19 (human retinal pigment epithelial cell line), SIRC (rabbit corneal cell line), and RAW 264.7 (mouse macrophage cell line) were obtained from American Type Culture Collection (\"ATCC\"). ARPE-19 cells were cultured in Dubelcco's modified Eagle's medium (\"DMEM/F12\") supplemented with 10% fetal bovine serum (\"FBS\"), 100 U/mL penicillin and 100 µg/mL of streptomycin. SIRC cells were cultured in minimum essential medium (\"MEM\") and supplemented with 10% FBS, 100 U/mL of penicillin and 100 µg/mL of streptomycin. RAW 264.7 (Mouse macrophage cells) cells were cultured in DMEM/F12supplemented with 10% FBS, 10% of nonessential amino acids, 100 U/mL penicillin and 100 µg/mL of streptomycin. The pH of the medium was adjusted to 7.4 and cells were incubated in humidified atmosphere at 37 °C temperature with 5% CO2 environment. The cell cultures were exposed directly to different concentrations of Pentablock Polymer A and Pentablock Polymer B. […]\n(§2) MTS assay is based on the reduction of the tetrazolium salt (yellow) to fromazone (purple) by mitochondrial enzymes of metabolic active cells. […] After incubation, the absorbance of each well was measured at 450 nm by ELISA plate reader. The absorbance is directly proportional to viability of cells. […]"}, "PCEC": {"test_system": "PCEC", "experiment": "MTS assay (cytotoxicity), Pentablock Polymer B protocol", "conditions": "Triton X control, blank = 100", "protocol": "Pentablock Polymer B: Cytotoxicity for Pentablock Polymer B was performed at different concentration ranging from 0.5-10 mg/ml. The plates were seeded with cell density of 10,000 cells/100 µL. After 24 hours of incubation fresh medium containing hydrogel of different concentration ranging from 0.5-10 mg/ml were added and further incubated for 24 hours. MTS assay is based on the reduction of the tetrazolium salt (yellow) to fromazone (purple) by mitochondrial enzymes of metabolic active cells. The amount of the fromazone is directly proportional to viable cells. In MTS assay Trioton X treated cells were served as negative control and untreated cells served as positive control. Then, 100 µL of serum free medium containing 20 µL of MTS solution was added to the 96 well plates, and these plates were incubated at 37 °C and 5% CO2 for 4 hours. After incubation, the absorbance of each well was measured at 450 nm by ELISA plate reader. The absorbance is directly proportional to viability of cells. Table 1: MTS assay on Pentablock Polymer A"}, "[2]": {"test_system": "RAW 264.7 (mouse macrophage cell line)", "experiment": "MTS assay (cytotoxicity), Pentablock Polymer A protocol", "conditions": "RAW 264.7, Triton X control; blank = 100", "protocol": "as §1, §2"}, "[3]": {"test_system": "SIRC (rabbit corneal cell line)", "experiment": "MTS assay (cytotoxicity), Pentablock Polymer A protocol", "conditions": "Triton X control, blank = 100", "protocol": "as §1, §2"}}, "data": [{"substance": "Triton X", "values": [{"measurement": "MTS assay", "setting": "[1]", "result": "0.000 ± 0.491"}, {"measurement": "MTS assay", "setting": "PCEC", "result": "0.000 ± 1.099"}, {"measurement": "MTS assay", "setting": "[2]", "result": "0 ± 0.594"}, {"measurement": "MTS assay", "setting": "[3]", "result": "0 ± 0.271"}]}]}
